Several values for one entry are separate records, joined by “and”; a condition that tells them apart may be missing. Identical values can stand only once. Inconclusive results and toxic doses are left out. Rule as the data show it: active = T/C of 150% or more; inactive = T/C below 125%.
System: L1210 leukemia ip in BDF1 mice, survival T/C
Test: NCI In Vivo Anticancer Drug Screen. Data for tumor model L1210 Leukemia (intraperitoneal) in B6D2F1 (BDF1) mice
Settings: higher = longer survival
How it was run: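 Read-out is survival time, reported as the treated-group measurement over the vehicle-control measurement.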

[1] = endpoint: mean survival time, dose: 50.0 mg/kg/injection, schedule: Q01DX009 (ip), vehicle: saline
[2] = endpoint: mean survival time, dose: 100.0 mg/kg/injection, schedule: Q01DX001 (ip), vehicle: saline
[3] = endpoint: mean survival time, dose: 100.0 mg/kg/injection, schedule: Q01DX009 (ip), vehicle: saline
[4] = endpoint: mean survival time, dose: 100.0 mg/kg/injection, schedule: Q04DX003 (ip), vehicle: saline
[5] = endpoint: mean survival time, dose: 200.0 mg/kg/injection, schedule: Q01DX001 (ip), vehicle: saline
[6] = endpoint: mean survival time, dose: 200.0 mg/kg/injection, schedule: Q01DX009 (ip), vehicle: saline
[7] = endpoint: mean survival time, dose: 200.0 mg/kg/injection, schedule: Q04DX003 (ip), vehicle: saline
[8] = endpoint: mean survival time, dose: 100.0 mg/kg/injection, schedule: Q01DX009 (ip), vehicle: Klucel (hydroxypropylcellulose) (HPC)
[9] = endpoint: mean survival time, dose: 200.0 mg/kg/injection, schedule: Q01DX009 (ip), vehicle: Klucel (hydroxypropylcellulose) (HPC)
[10] = endpoint: mean survival time, dose: 400.0 mg/kg/injection, schedule: Q01DX009 (ip), vehicle: Klucel (hydroxypropylcellulose) (HPC)
[11] = endpoint: mean survival time, dose: 100.0 mg/kg/injection, schedule: Q04DX003 (ip), vehicle: saline with Tween-80
[12] = endpoint: mean survival time, dose: 200.0 mg/kg/injection, schedule: Q04DX003 (ip), vehicle: saline with Tween-80
[13] = endpoint: mean survival time, dose: 400.0 mg/kg/injection, schedule: Q04DX003 (ip), vehicle: saline with Tween-80
[14] = endpoint: mean survival time, dose: 50.0 mg/kg/injection, schedule: Q01DX001 (ip), vehicle: saline

Measured: T/C

NCCCNCCCCNCCCN
inactive: endpoint: mean survival time, dose: 2.0 mg/kg/injection, schedule: Q01DX010 (ip), vehicle: other 103 % of control | endpoint: mean survival time, dose: 4.0 mg/kg/injection, schedule: Q01DX010 (ip), vehicle: other 103 % of control | endpoint: mean survival time, dose: 8.0 mg/kg/injection, schedule: Q01DX010 (ip), vehicle: other 97 % of control | endpoint: mean survival time, dose: 16.0 mg/kg/injection, schedule: Q01DX010 (ip), vehicle: other 92 % of control | endpoint: mean survival time, dose: 32.0 mg/kg/injection, schedule: Q01DX010 (ip), vehicle: other 97 % of control | endpoint: median survival time, dose: 6.3 mg/kg/injection, schedule: Q01DX009 (ip), vehicle: water 87 % of control and 90 % of control | endpoint: median survival time, dose: 12.5 mg/kg/injection, schedule: Q01DX009 (ip), vehicle: water 96 % of control and 100 % of control | endpoint: median survival time, dose: 25.0 mg/kg/injection, schedule: Q01DX009 (ip), vehicle: water 94 % of control and 95 % of control | endpoint: median survival time, dose: 50.0 mg/kg/injection, schedule: Q01DX009 (ip), vehicle: water 96 % of control and 100 % of control

CCCCCCCCC1NC1CCCCCCCCO (stereo not given)
inactive: endpoint: mean survival time, dose: 100.0 mg/kg/injection, schedule: Q04DX002 (ip), vehicle: Klucel (hydroxypropylcellulose) (HPC) 103 % of control | endpoint: mean survival time, dose: 200.0 mg/kg/injection, schedule: Q04DX002 (ip), vehicle: Klucel (hydroxypropylcellulose) (HPC) 103 % of control | endpoint: mean survival time, dose: 400.0 mg/kg/injection, schedule: Q04DX002 (ip), vehicle: Klucel (hydroxypropylcellulose) (HPC) 100 % of control

O=C(Nc1cc(C(F)(F)F)cc(C(F)(F)F)c1)Nc1ccc(Oc2ccccc2Cl)c(S(=O)(=O)O)c1
inactive: endpoint: mean survival time, dose: 100.0 mg/kg/injection, schedule: Q04DX003 (ip), vehicle: saline sonified 117 % of control | endpoint: mean survival time, dose: 200.0 mg/kg/injection, schedule: Q04DX003 (ip), vehicle: saline sonified 115 % of control | endpoint: mean survival time, dose: 400.0 mg/kg/injection, schedule: Q04DX003 (ip), vehicle: saline sonified 121 % of control

CS(=O)(=O)OC[C@H](OS(=O)(=O)O)[C@H](COS(C)(=O)=O)OS(=O)(=O)O
inactive: [1] 106 % of control | endpoint: mean survival time, dose: 50.0 mg/kg/injection, schedule: Q04DX003 (ip), vehicle: saline 89 % of control | [2] 89 % of control | [3] 95 % of control | [4] 96 % of control | [5] 95 % of control | [6] 98 % of control | [7] 91 % of control

CC(Cl)CN(CC(C)Cl)C(=O)Oc1ccccc1[N+](=O)[O-] (stereo not given)
inactive: [8] 93 % of control | [9] 104 % of control | [10] 93 % of control

Cc1cccc(NC(=O)Nc2ccccc2Cl)c1C
inactive: [8] 94 % of control | endpoint: mean survival time, dose: 100.0 mg/kg/injection, schedule: Q04DX003 (ip), vehicle: Klucel (hydroxypropylcellulose) (HPC) 95 % of control | [9] 92 % of control | endpoint: mean survival time, dose: 200.0 mg/kg/injection, schedule: Q04DX003 (ip), vehicle: Klucel (hydroxypropylcellulose) (HPC) 110 % of control | [10] 96 % of control | endpoint: mean survival time, dose: 400.0 mg/kg/injection, schedule: Q04DX003 (ip), vehicle: Klucel (hydroxypropylcellulose) (HPC) 96 % of control

O=C1c2ccccc2CCC1(Br)C(Br)c1ccccc1 (stereo not given)
inactive: endpoint: mean survival time, dose: 100.0 mg/kg/injection, schedule: Q04DX003 (ip), vehicle: acetone 96 % of control | endpoint: mean survival time, dose: 200.0 mg/kg/injection, schedule: Q04DX003 (ip), vehicle: acetone 101 % of control | endpoint: mean survival time, dose: 400.0 mg/kg/injection, schedule: Q04DX003 (ip), vehicle: acetone 92 % of control

CCN(CC)CCNCCO
inactive: [3] 89 % of control | [4] 95 % of control | [6] 94 % of control | [7] 92 % of control | endpoint: mean survival time, dose: 400.0 mg/kg/injection, schedule: Q01DX009 (ip), vehicle: saline 89 % of control | endpoint: mean survival time, dose: 400.0 mg/kg/injection, schedule: Q04DX003 (ip), vehicle: saline 92 % of control

COc1ccc(OC)c(NC(=O)Oc2ccc(Cl)c(C)c2)c1
inactive: [11] 90 % of control | [12] 87 % of control | [13] 93 % of control

COc1cc(Br)c2c(c1OC)C1(CC[N+](C)(C)C)CC(=O)CCC1CC2 (stereo not given)
inactive: endpoint: mean survival time, dose: 12.5 mg/kg/injection, schedule: Q01DX001 (ip), vehicle: saline 97 % of control | endpoint: mean survival time, dose: 25.0 mg/kg/injection, schedule: Q01DX001 (ip), vehicle: saline 97 % of control | [14] 94 % of control | [2] 97 % of control

O=C(O)CCCc1ccc(Cl)cc1
inactive: [1] 113 % of control | [3] 105 % of control | [6] 96 % of control

CC1(C)OCC(C(OC(=O)c2ccc([N+](=O)[O-])cc2)C(OC(=O)c2ccc([N+](=O)[O-])cc2)C2COC(C)(C)O2)O1 (stereo not given)
inactive: endpoint: mean survival time, dose: 100.0 mg/kg/injection, schedule: Q01DX001 (ip), vehicle: Klucel (hydroxypropylcellulose) (HPC) 103 % of control | endpoint: mean survival time, dose: 200.0 mg/kg/injection, schedule: Q01DX001 (ip), vehicle: Klucel (hydroxypropylcellulose) (HPC) 100 % of control | endpoint: mean survival time, dose: 400.0 mg/kg/injection, schedule: Q01DX001 (ip), vehicle: Klucel (hydroxypropylcellulose) (HPC) 100 % of control

COS(C)(=O)=O
inactive: endpoint: mean survival time, dose: 12.5 mg/kg/injection, schedule: Q01DX010 (ip), vehicle: saline 101 % of control and 91 % of control | endpoint: mean survival time, dose: 25.0 mg/kg/injection, schedule: Q01DX010 (ip), vehicle: saline 102 % of control and 106 % of control | endpoint: mean survival time, dose: 25.0 mg/kg/injection, schedule: Q01DX Z (ip), vehicle: carboxymethylcellulose (CMC) 97 % of control | endpoint: mean survival time, dose: 50.0 mg/kg/injection, schedule: Q01DX010 (ip), vehicle: saline 96 % of control and 106 % of control | endpoint: mean survival time, dose: 50.0 mg/kg/injection, schedule: Q01DX Z (ip), vehicle: carboxymethylcellulose (CMC) 106 % of control | endpoint: mean survival time, dose: 100.0 mg/kg/injection, schedule: Q01DX010 (ip), vehicle: saline 95 % of control and 102 % of control | endpoint: mean survival time, dose: 100.0 mg/kg/injection, schedule: Q01DX Z (ip), vehicle: carboxymethylcellulose (CMC) 95 % of control

O=C(O)c1cscc1Cc1ccccc1
inactive: [11] 90 % of control | [12] 94 % of control | [13] 95 % of control

Cc1cc2ccccc2c(N=Cc2cc(Br)cc(Br)c2O)c1C#N
inactive: [11] 92 % of control and 98 % of control and 90 % of control | endpoint: mean survival time, dose: 200.0 mg/kg/injection, schedule: Q01DX003 (ip), vehicle: saline with Tween-80 87 % of control | [12] 93 % of control and 98 % of control and 90 % of control | [13] 97 % of control and 101 % of control and 104 % of control

OCCOc1ccccc1
inactive: endpoint: mean survival time, dose: 100.0 mg/kg/injection, schedule: Q04DX002 (ip), vehicle: saline with Tween-80 100 % of control | endpoint: mean survival time, dose: 200.0 mg/kg/injection, schedule: Q04DX002 (ip), vehicle: saline with Tween-80 95 % of control | endpoint: mean survival time, dose: 400.0 mg/kg/injection, schedule: Q04DX002 (ip), vehicle: saline with Tween-80 91 % of control

Cc1nn2cnnc2s1
inactive: [14] 98 % of control | [2] 101 % of control | [5] 98 % of control | endpoint: mean survival time, dose: 400.0 mg/kg/injection, schedule: Q01DX001 (ip), vehicle: saline 101 % of control

NC(=S)c1c(N)n(C2OC(CO)C(O)C2O)c2ncnc(N)c12 (stereo not given)
inactive: endpoint: mean survival time, dose: 3.12 mg/kg/injection, schedule: Q01DX005 (ip), vehicle: saline 116 % of control | endpoint: mean survival time, dose: 6.25 mg/kg/injection, schedule: Q01DX005 (ip), vehicle: saline 119 % of control and 124 % of control | endpoint: mean survival time, dose: 12.5 mg/kg/injection, schedule: Q01DX005 (ip), vehicle: saline 112 % of control and 119 % of control | endpoint: mean survival time, dose: 25.0 mg/kg/injection, schedule: Q01DX005 (ip), vehicle: saline 105 % of control | endpoint: mean survival time, dose: 50.0 mg/kg/injection, schedule: Q01DX005 (ip), vehicle: saline 120 % of control
